# Laboratory results as given in PMC7822874, “Chemoprotective antimalarials identified through quantitative high-throughput screening of Plasmodium blood and liver stage parasites” (Scientific Reports, 2021).
# Where “and” joins values, the source holds several entries; their conditions need not be identical. Equal values may be shown once.
# Assays:
# [1] = tested on: T1, Plasmodium falciparum Dd2-attB (parental line), asexual blood stages; test: microbe, parasite or virus in culture; design: replicate k of 3 (each line is one of three independent assays; the three lines of one compound and parasite line follow each other); details: n = 1; for Individual replicates / Log AC50 (M): 72 h; for AC50: Plasmodium falciparum, DD2, 72 h, read-out: Individual replicates / Log AC50 (converted)
# T1 construct: Dd2-attB, the isogenic parental line
# Experimental: (§1) The overexpression of the fumarate-dependent yeast DHODH confers resistance to compounds that inhibit the parasite mETC, or the parasite DHODH enzyme that depends on ubiquinone provided by the parasite mETC. Assays were performed in three independent assays on a subset of compounds, and differences between the Dd2-attB parental line and the ScDHODH transgenic line were analyzed using two-sided Student’s t-tests.
# [2] = tested on: T2, Plasmodium falciparum Dd2-attB-ScDHODH (transgenic line expressing yeast DHODH), asexual blood stages; test: organism not typed; design: replicate k of 3 (each line is one of three independent assays; the three lines of one compound and parasite line follow each other)
# T2 construct: Dd2-attB-ScDHODH, the transgenic line that expresses yeast DHODH
# Experimental: as §1
# [3] = 72 h; n = 1; read-out: Individual replicates / Log AC50 (converted)
compound,measurement,setting,value
COC(=O)c1ccnc2cc(C(OCCC3CCCN3C)c3ccccc3Cl)[nH]c12 (centres unmarked) [NCGC00479019-01],Individual replicates / Log AC50 (M),[1],-5.1986 Log AC50 (M) and -5.1486 Log AC50 (M)
same,AC50,[1],5.03 µM
same,Individual replicates / Log AC50 (M),"[2]; 72 h, n = 1",-5.2986 Log AC50 (M) and -5.1486 Log AC50 (M)
same,AC50,[2]; [3],7.1 µM
COc1ccnc(NCc2ccc(O)c3ncccc23)c1 [NCGC00241023-01],Individual replicates / Log AC50 (M),[1],-4.7986 Log AC50 (M)
same,AC50,[1],15.9 µM
same,Individual replicates / Log AC50 (M),[2]; 72 h; n = 1,-4.8986 Log AC50 (M)
same,AC50,[2]; [3],12.6 µM
CCOC(=O)c1ccc(OC(C)=O)c2ncc(N3CCOCC3)cc12 [NCGC00244523-01],Individual replicates / Log AC50 (M),[1],-5.3486 Log AC50 (M) and -5.3986 Log AC50 (M)
same,AC50,[1],4.48 µM
same,Individual replicates / Log AC50 (M),[2]; 72 h; n = 1,-5.3486 Log AC50 (M)
same,AC50,[2]; [3],4.48 µM
CC(Cc1cnccn1)Nc1cnc2c(O)ccc(C(=O)O)c2c1 (centres unmarked) [NCGC00241766-01],Individual replicates / Log AC50 (M),[1],-4.8486 Log AC50 (M)
same,AC50,[1],15.9 µM
same,AC50,[2]; [3],7.97 µM
C/C=C(\C#N)C(=O)N1CCCN(c2cc(NCCC(=O)OC)nc(-c3ccccn3)n2)CC1 [NCGC00420778-01],AC50,[1],15.9 µM
same,AC50,[2]; [3],14.2 µM
CN(C)CCNC(=O)c1cccc(-c2cc(O)c3ncccc3c2)c1 [NCGC00244526-01],Individual replicates / Log AC50 (M),[1],-5.0986 Log AC50 (M) and -4.9486 Log AC50 (M)
same,AC50,[1],14.2 µM
same,Individual replicates / Log AC50 (M),"[2]; 72 h, n = 1",-4.7986 Log AC50 (M)
same,AC50,[2]; [3],17.8 µM
Oc1ccc(CNc2cccc(F)c2)c2cccnc12 [NCGC00184892-01],Individual replicates / Log AC50 (M),[1],-4.7486 Log AC50 (M) and -4.8486 Log AC50 (M)
same,AC50,[1],12.6 µM
same,Individual replicates / Log AC50 (M),"[2]; 72 h, n = 1",-4.7486 Log AC50 (M)
same,AC50,[2]; [3],17.8 µM
Oc1ccc(CCc2c(F)cccc2F)c2cccnc12 [NCGC00184906-01],Individual replicates / Log AC50 (M),[1],-5.2486 Log AC50 (M) and -5.2986 Log AC50 (M)
same,AC50,[1],5.64 µM
same,Individual replicates / Log AC50 (M),"[2]; 72 h, n = 1",-5.0486 Log AC50 (M) and -5.1486 Log AC50 (M)
same,AC50,[2]; [3],6.33 µM
CCO/C=C(\C#N)C(=O)N1CCCN(c2cc(NCCC(=O)OC)nc(-c3ccccn3)n2)CC1 [NCGC00420783-01],Individual replicates / Log AC50 (M),[1],-5.0986 Log AC50 (M) and -5.0486 Log AC50 (M)
same,AC50,[1],8.94 µM
same,Individual replicates / Log AC50 (M),"[2]; 72 h, n = 1",-5.0486 Log AC50 (M) and -4.8986 Log AC50 (M)
same,AC50,[2]; [3],10 µM
CCOC(=O)CCNc1cc(N2CCc3ccccc3CC2)nc(-c2cccnc2)n1 [NCGC00351550-02],Individual replicates / Log AC50 (M),[1],-4.8486 Log AC50 (M) (2×) and -4.7486 Log AC50 (M)
same,Individual replicates / Log AC50 (M),"[2]; 72 h, n = 1",-5.0986 Log AC50 (M) and -4.7986 Log AC50 (M)
COC(=O)c1ccc(O)c2ncc(-c3ccc(C(=O)N4CCN(C)CC4)cc3)cc12 [NCGC00189505-01],Individual replicates / Log AC50 (M),[1],-5.2486 Log AC50 (M) and -5.0486 Log AC50 (M)
same,AC50,[1],5.03 µM
same,Individual replicates / Log AC50 (M),"[2]; 72 h, n = 1",-4.8986 Log AC50 (M) and -5.1486 Log AC50 (M)
same,AC50,[2]; [3],6.33 µM
Oc1ccc(Nc2ccccc2F)c2cccnc12 [NCGC00184886-01],Individual replicates / Log AC50 (M),[1],-5.6486 Log AC50 (M) and -5.5486 Log AC50 (M)
same,AC50,[1],3.56 µM
same,Individual replicates / Log AC50 (M),"[2]; 72 h, n = 1",-5.5986 Log AC50 (M)
same,AC50,[2]; [3],4.48 µM
Cn1cnc(-c2nccc3c(O)nc(OCCCC(F)(F)F)nc23)c1 [NCGC00381768-01],Individual replicates / Log AC50 (M),[1],-4.7486 Log AC50 (M) and -4.7986 Log AC50 (M)
same,AC50,[1],15.9 µM
same,Individual replicates / Log AC50 (M),[2]; 72 h; n = 1,-4.7486 Log AC50 (M)
same,AC50,[2]; [3],17.8 µM
CCCCOC(=O)c1ccnc2cc(C(=O)N(CCN(C)C)c3ccccc3)sc12 [NCGC00481684-01],Individual replicates / Log AC50 (M),[1],-4.7986 Log AC50 (M)
same,AC50,[1],17.8 µM
same,AC50,[2]; [3],14.2 µM
CCOC(=O)C1(Cc2ccc(Cl)cc2)CCN(C(=O)c2cc(C)oc2C)CC1 [NCGC00426139-02],Individual replicates / Log AC50 (M),[1],-5.0986 Log AC50 (M)
same,AC50,[1],8.94 µM
same,Individual replicates / Log AC50 (M),"[2]; 72 h, n = 1",-4.8986 Log AC50 (M) and -4.7986 Log AC50 (M)
same,AC50,[2]; [3],15.9 µM
Cc1ccccc1C(OCCN1CCCCC1)c1cc2nccc(B(O)O)c2s1 (centres unmarked) [NCGC00481524-01],Individual replicates / Log AC50 (M),[1],-4.8486 Log AC50 (M) and -4.7986 Log AC50 (M)
same,AC50,[1],14.2 µM
same,Individual replicates / Log AC50 (M),[2]; 72 h; n = 1,-4.7986 Log AC50 (M)
same,AC50,[2]; [3],15.9 µM
COC(=O)c1ccc(O)c2ncc(-c3ccc(C(=O)N4CCNCC4)cc3)cc12 [NCGC00189509-01],Individual replicates / Log AC50 (M),[1],-5.0486 Log AC50 (M) and -5.1486 Log AC50 (M)
same,AC50,[1],5.64 µM
same,Individual replicates / Log AC50 (M),"[2]; 72 h, n = 1",-4.9486 Log AC50 (M) and -5.0986 Log AC50 (M)
same,AC50,[2]; [3],5.64 µM
Oc1cc(-c2ccc(CN3CCOCC3)c(F)c2)cc2cccnc12 [NCGC00247756-01],Individual replicates / Log AC50 (M),[1],-5.2986 Log AC50 (M)
same,AC50,[1],5.03 µM
same,Individual replicates / Log AC50 (M),"[2]; 72 h, n = 1",-5.2986 Log AC50 (M) and -5.2486 Log AC50 (M)
same,AC50,[2]; [3],5.03 µM
Cc1nnc2c3ccccc3nc(N3CCN(c4ccccc4)CC3)n12 [NCGC00107295-01],Individual replicates / Log AC50 (M),[1],-4.7986 Log AC50 (M)
same,AC50,[1],15.9 µM
same,AC50,[2]; [3],14.2 µM
CC(C)c1c(-c2cnn(C(C)(C)C)c2)[nH]c2c(C#N)cnn2c1=O [NCGC00488278-02],AC50,[1],15.9 µM
same,Individual replicates / Log AC50 (M),"[2]; 72 h, n = 1",-4.7986 Log AC50 (M)
same,AC50,[2]; [3],10 µM
N=C(N)c1cccc(-c2cnc3c(O)ccc(C(=O)O)c3c2)c1 [NCGC00241054-02],Individual replicates / Log AC50 (M),[1],-4.8986 Log AC50 (M) and -4.9486 Log AC50 (M)
same,AC50,[1],10 µM
same,Individual replicates / Log AC50 (M),"[2]; 72 h, n = 1",-4.7486 Log AC50 (M) and -4.8486 Log AC50 (M)
same,AC50,[2]; [3],14.2 µM
CC1CN(c2cnc3c(O)ccc(C(=O)O)c3c2)CCN1Cc1ccccc1 (centres unmarked) [NCGC00249383-01],Individual replicates / Log AC50 (M),[1],-4.7486 Log AC50 (M) and -4.8486 Log AC50 (M)
same,AC50,[1],17.8 µM
same,Individual replicates / Log AC50 (M),"[2]; 72 h, n = 1",-4.7986 Log AC50 (M)
same,AC50,[2]; [3],17.8 µM
CC(OCCN1CCCCC1)c1cnn(-c2cc(CO)ccn2)c1-c1cccc(-c2ccccc2)c1 (centres unmarked) [NCGC00479246-01],Individual replicates / Log AC50 (M),[1],-5.5486 Log AC50 (M) and -5.3986 Log AC50 (M)
same,AC50,[1],3.56 µM
same,Individual replicates / Log AC50 (M),"[2]; 72 h, n = 1",-5.3486 Log AC50 (M)
same,AC50,[2]; [3],3.56 µM
Oc1ccc(CNc2cccc(F)c2F)c2cccnc12 [NCGC00183376-01],Individual replicates / Log AC50 (M),[1],-4.7486 Log AC50 (M)
same,AC50,[1],17.8 µM
same,Individual replicates / Log AC50 (M),[2]; 72 h; n = 1,-4.7486 Log AC50 (M)
same,AC50,[2]; [3],17.8 µM
O=C(NCCCN1CCCC1)c1cccc(-c2cc(O)c3ncccc3c2)c1 [NCGC00247742-01],Individual replicates / Log AC50 (M),[1],-4.7986 Log AC50 (M)
same,AC50,[1],17.8 µM
same,Individual replicates / Log AC50 (M),[2]; 72 h; n = 1,-4.7486 Log AC50 (M)
same,AC50,[2]; [3],17.8 µM
Oc1ccc(CNCc2ccc3c(c2)OCO3)c2cccnc12 [NCGC00183368-01],Individual replicates / Log AC50 (M),[1],-4.7986 Log AC50 (M)
same,AC50,[1],15.9 µM
same,Individual replicates / Log AC50 (M),"[2]; 72 h, n = 1",-4.7486 Log AC50 (M)
same,AC50,[2]; [3],15.9 µM
Cc1ccccc1C(OCCN1CCCCC1)c1cc2nccc(Cl)c2s1 (centres unmarked) [NCGC00481525-01],Individual replicates / Log AC50 (M),[1],-5.0486 Log AC50 (M) and -4.9986 Log AC50 (M)
same,AC50,[1],8.94 µM
same,Individual replicates / Log AC50 (M),"[2]; 72 h, n = 1",-5.0486 Log AC50 (M)
same,AC50,[2]; [3],10 µM
COC(=O)c1ccc(O)c2ncc(-c3ccc(C(=O)NCCCN(C)C)cc3)cc12 [NCGC00189510-01],Individual replicates / Log AC50 (M),[1],-5.1486 Log AC50 (M) and -5.1986 Log AC50 (M)
same,AC50,[1],7.97 µM
same,Individual replicates / Log AC50 (M),"[2]; 72 h, n = 1",-4.7986 Log AC50 (M) and -5.1486 Log AC50 (M)
Oc1ccc(CNc2ccccc2Cl)c2cccnc12 [NCGC00184891-01],Individual replicates / Log AC50 (M),[1],-4.6986 Log AC50 (M)
same,AC50,[1],15.9 µM
same,Individual replicates / Log AC50 (M),"[2]; 72 h, n = 1",-4.7486 Log AC50 (M)
same,AC50,[2]; [3],14.2 µM
c1ccc(CCn2nc(-c3ccccn3)nc2CCCN2CCCCC2)cc1 [NCGC00389173-01],Individual replicates / Log AC50 (M),[1],-5.2986 Log AC50 (M) and -5.0986 Log AC50 (M) and -5.4486 Log AC50 (M)
same,Individual replicates / Log AC50 (M),"[2]; 72 h, n = 1",-5.2486 Log AC50 (M) and -5.3986 Log AC50 (M) and -5.0486 Log AC50 (M)
CN(C)CCCNC(=O)c1ccc(-c2cc(O)c3ncccc3c2)cc1 [NCGC00183808-03],Individual replicates / Log AC50 (M),[1],-4.9486 Log AC50 (M) and -4.8986 Log AC50 (M)
same,AC50,[1],14.2 µM
same,Individual replicates / Log AC50 (M),"[2]; 72 h, n = 1",-4.8486 Log AC50 (M)
same,AC50,[2]; [3],12.6 µM
